Measurements as given in US10532065B2, “Bisphosphonic acid derivative and application for same” (NAGASAKI UNIVERSITY, priority 2014, dated 2020).
Read-outs that look alike come from different tables or passages of the source.

Key:
Format in all cases: cell-based
MKN1 cells = assay: MKN1 tumor cell growth inhibition (CellTiterGlo); conditions: MKN1, Gastric cancer, 4 days culture
Description: (§2) First, EJ-1, 786-0, MKN1, OST, PC-3, PK-1, LK-2, G-361, TFK-1, MRK-nu-1 were cultured in RPMI1640 medium supplemented with 10% calf serum at 37° C. under 5% CO2 atmosphere while maintaining log phase. The cells were recovered by a conventional EDTA trypsin treatment, and centrifuged at 1,700 rpm, 4° C. for 5 min. The supernatant was removed, and suspended in RPMI1640 medium supplemented with 10% calf serum to 500 cells/50 μl. On the other hand, 10 mM stock solution of compound 7 which is a bisphosphonic acid POM ester derivative was serially diluted 2-fold from 200 pM. In addition, 10 mM stock solution of compound 14 which is bisphosphonic acid was serially diluted 2-fold from 2 mM. Then, the cell suspension (50 μl, 500 cells) and the compound solution (50 μl) were added to a flat-bottomed 96 well plate and cultured at 37° C. under 5% CO2 atmosphere for 4 days. Then, 100 μl of CellTiterGlo solution was added, and the mixture was pipetted 10 strokes, and transferred to a 96 well OptiPlate. After standing at room temperature for 10 min, the luminescence was measured by a luminometer and IC50 value was calculated.

EJ-1 cells = assay: EJ-1 cell growth inhibition (direct antitumor action, CellTiterGlo); conditions: for IC50: EJ-1 (bladder cancer) growth inhibition, 4 days culture
Method in brief: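 EJ-1 cells run as in the earlier U937 protocol, with cells recovered by conventional EDTA-trypsin treatment. POM ester derivatives were tested side by side with the parent bisphosphonic acids for direct growth inhibition, read by CellTiterGlo.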

MKN1 cells / γδ T cells = assay: TNF-α production from γδ T cells stimulated by compound-pretreated MKN1 cells; conditions: MKN1, Gastric cancer, 4 hr pretreatment, 16 hr with γδ T cells, read-out: TNF-α50
Description: (§1) Since the above-mentioned results of Experimental Example confirm that the activity of bisphosphonic acids becomes high by POM esterification in various tumor cells, the TNF-α production induction ability of more number of tumor cells was quantitatively studied. […] Thereto was added a solution (500 μl) of compound 7 obtained by serially diluting 10 mM stock solution 10-fold from 20 μM, or a solution (500 μl) of compound 14 obtained by serially diluting 10 mM stock solution 10-fold from 200 μM, and the cells were suspended well. These conical tubes were stood at 37° C. for 4 hr, and the cells were washed 3 times with 5 ml of culture medium. To these cells was added 500 μl of medium, and the cells were suspended well. […] The cell culture medium was suspended well, and the plate was centrifuged at 1,700 rpm, 4° C. for 2 min and the culture supernatant (150 μl) was taken and placed in another round-bottomed 96 well plate. The plate was frozen at −80° C. overnight, left standing at room temperature for 1 hr, stirred well and 100 μl thereof was subjected to ELISA of TNF-α. The content of TNF-α was calculated from the analytical curve of TNF-α. These were performed in triplicate, and TNF-α50 of bisphosphonic acid POM ester derivative (compound 7) and bisphosphonic acid (compound 14) was calculated and summarized in Table 8.

Raji cells / γδ T cells = assay: TNF-α production from γδ T cells stimulated by compound-pretreated Raji cells; conditions: Burkitt's lymphoma, 4 hr pretreatment, 16 hr with γδ T cells, read-out: TNF-α50
Description: as §1

THP-1 cells / γδ T cells = assay: TNF-α production from γδ T cells stimulated by compound-pretreated THP-1 cells; conditions: THP-1, Acute monocytic leukemia, 4 hr pretreatment, 16 hr with γδ T cells, read-out: TNF-α50
Description: as §1

U937 cells / γδ T cells = assay: TNF-α production from γδ T cells stimulated by compound-pretreated U937 cells; conditions: U937, Histiocytic lymphoma, 4 hr pretreatment, 16 hr with γδ T cells, read-out: TNF-α50
Description: as §1

PEER cells / γδ T cells = assay: TNF-α production from γδ T cells stimulated by compound-pretreated PEER cells; conditions: T cell acute lymphocytic leukemia, 4 hr pretreatment, 16 hr with γδ T cells, read-out: TNF-α50
Description: as §1

[1] = test system: RAMOS-RA1 cells / γδ T cells; assay: TNF-α production from γδ T cells stimulated by compound-pretreated RAMOS-RA1 cells; conditions: RAMOS-RA1, Burkitt's lymphoma, 4 hr pretreatment, 16 hr with γδ T cells, read-out: TNF-α50
Description: as §1

PK-1 cells = assay: PK-1 tumor cell growth inhibition (CellTiterGlo); conditions: PK-1, Pancreatic cancer, 4 days culture
Description: as §2

LK-2 cells / γδ T cells = assay: TNF-α production from γδ T cells stimulated by compound-pretreated LK-2 cells; conditions: LK-2, Lung cancer, 4 hr pretreatment, 16 hr with γδ T cells, read-out: TNF-α50
Description: as §1

G-361 cells = assay: G-361 tumor cell growth inhibition (CellTiterGlo); conditions: G-361, Melanoma, 4 days culture
Description: as §2

C1R cells / γδ T cells = assay: TNF-α production from γδ T cells stimulated by compound-pretreated C1R cells; conditions: B cell lymphoma, 4 hr pretreatment, 16 hr with γδ T cells, read-out: TNF-α50
Description: as §1

[2] = test system: MOLT-4 cells / γδ T cells; assay: TNF-α production from γδ T cells stimulated by compound-pretreated MOLT-4 cells; conditions: MOLT-4, Acute lymphoblastic leukemia, 4 hr pretreatment, 16 hr with γδ T cells, read-out: TNF-α50
Description: as §1

## O=P(O)(O)C(CNc1nccs1)P(=O)(O)O [Compound 14, 2-(thiazol-2-ylamino)ethylidene-1,1-bisphosphonic Acid, reference compound]
MKN1 cells; Homo sapiens, MKN-1, 96 h
  IC50: 100000 nM
EJ-1 cells; EJ1, 96 h
  IC50: 3700 nM
MKN1 cells / γδ T cells; Homo sapiens, MKN-1
  EC50: 89000 nM
Raji cells / γδ T cells; Homo sapiens
  EC50: > 100000 nM
THP-1 cells / γδ T cells; Homo sapiens
  EC50: > 100000 nM
U937 cells / γδ T cells; Homo sapiens, U-937
  EC50: > 100000 nM
PEER cells / γδ T cells
  EC50: > 100000 nM
[1]; T-cell
  EC50: > 100000 nM
PK-1 cells; 96 h
  IC50: 110000 nM
LK-2 cells / γδ T cells; Homo sapiens
  EC50: > 100000 nM
G-361 cells; Homo sapiens, 96 h
  IC50: 20000 nM
C1R cells / γδ T cells
  EC50: > 100000 nM
[2]; Homo sapiens
  EC50: > 100000 nM

## CC(C)(C)C(=O)OCOP(=O)(OCOC(=O)C(C)(C)C)C(CNc1nccs1)P(=O)(OCOC(=O)C(C)(C)C)OCOC(=O)C(C)(C)C [Compound 7, tetrakispivaloyloxymethyl 2-(thiazol-2-ylamino) ethylidene-1,1-bisphosphonate]
MKN1 cells
  IC50: 1200 nM
EJ-1 cells
  IC50: 26 nM
EJ-1 cells; EJ-1 growth inhibition
  direct antitumor activity (in words): particularly high activity
MKN1 cells / γδ T cells
  EC50: 560 nM
Raji cells / γδ T cells
  EC50: 53 nM
THP-1 cells / γδ T cells
  EC50: 300 nM
U937 cells / γδ T cells
  EC50: 60 nM
PEER cells / γδ T cells
  EC50: 83 nM
[1]
  EC50: 140 nM
PK-1 cells
  IC50: 340 nM
LK-2 cells / γδ T cells
  EC50: 97 nM
G-361 cells
  IC50: 120 nM
C1R cells / γδ T cells
  EC50: 530 nM
[2]
  EC50: 59 nM
